{"source": "ChEMBL document CHEMBL5331095", "about": "“Structure-activity relationship and biological evaluation of xanthine derivatives as PCSK9 inhibitors for the treatment of atherosclerosis” (Eur J Med Chem, 2023)", "key": {"[1]": {"target": "Proprotein convertase subtilisin/kexin type 9 (Homo sapiens) (UniProt Q8NBP7)", "sequence (Q8NBP7 31-152 limits assumed)": "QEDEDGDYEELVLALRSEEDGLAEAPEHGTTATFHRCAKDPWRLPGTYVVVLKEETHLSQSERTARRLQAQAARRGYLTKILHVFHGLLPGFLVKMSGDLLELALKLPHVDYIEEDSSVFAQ", "sequence (Q8NBP7 153-692 limits assumed)": "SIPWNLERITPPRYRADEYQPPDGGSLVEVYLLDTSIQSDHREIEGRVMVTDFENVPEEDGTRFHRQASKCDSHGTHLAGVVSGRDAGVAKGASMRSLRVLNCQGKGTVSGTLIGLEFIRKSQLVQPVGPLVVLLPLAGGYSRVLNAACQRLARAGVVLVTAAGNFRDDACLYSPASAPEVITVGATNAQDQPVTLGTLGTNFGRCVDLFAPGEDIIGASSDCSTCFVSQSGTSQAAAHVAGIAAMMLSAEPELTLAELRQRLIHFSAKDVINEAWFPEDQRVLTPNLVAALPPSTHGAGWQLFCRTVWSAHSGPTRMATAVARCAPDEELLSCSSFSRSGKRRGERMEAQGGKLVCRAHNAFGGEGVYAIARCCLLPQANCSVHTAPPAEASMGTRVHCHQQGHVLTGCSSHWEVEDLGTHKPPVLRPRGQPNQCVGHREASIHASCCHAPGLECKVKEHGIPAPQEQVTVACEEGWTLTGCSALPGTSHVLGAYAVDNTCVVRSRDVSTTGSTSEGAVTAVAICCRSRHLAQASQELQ", "assay": "Inhibition of PCSK9 transcriptional activity in human HepG2 cells stably expressing luciferase reporter plasmid containing PCSK9 promoter assessed as decrease in luciferase activity at 10 ug/ml incubated for 24 hrs by Luciferase assay relative to control", "assay_type": "cell-based", "conditions": "dose 10.0 µg/ml"}, "[2]": {"assay": "Cytotoxicity against human HepG2 cells assessed as reduction in cell viability by measuring toxic concentration incubated for 24 hrs by MTT assay", "assay_type": "toxicity, cell-based", "conditions": "read-out: TC50"}, "[3]": {"system": "PCSK9 transcriptional activity", "assay": "Therapeutic index, ratio of TC50 for cytotoxicity against human HepG2 cells to IC50 for inhibition of PCSK9 transcriptional activity in human HepG2 cells stably expressing luciferase reporter plasmid containing PCSK9 promoter", "assay_type": "toxicity, cell-based"}, "[4]": {"assay": "Acute toxicity in C57BL/6 mouse assessed as body weight change upto 1000 mg/kg, IG and measured every day for 1 week", "assay_type": "organism-based", "conditions": "in vivo, po, 168 h, time 1 weeks"}, "[5]": {"assay": "Acute toxicity in C57BL/6 mouse assessed as behavioral change upto 1000 mg/kg, IG and measured every day for 1 week", "assay_type": "organism-based", "conditions": "in vivo, po, 168 h, time 1 weeks"}, "[6]": {"assay": "Acute toxicity in C57BL/6 mouse assessed as survival upto 1000 mg/kg, IG and measured every day for 1 week", "assay_type": "organism-based", "conditions": "in vivo, po, 168 h, time 1 weeks"}, "[7]": {"assay": "Acute toxicity in C57BL/6 mouse assessed as lethality upto 1000 mg/kg, IG and measured every day for 1 week", "assay_type": "organism-based", "conditions": "in vivo, po, time 1 weeks"}, "Mus musculus [8]": {"system": "Mus musculus", "assay": "In vivo inhibition of PCSK9 in high-fat diet fed ApoE knockout C57BL/6 mouse assessed as decrease in PCSK9 expression in serum at 30 mg/kg, IG for 8 weeks by ELISA", "assay_type": "functional, organism-based"}, "Mus musculus [9]": {"system": "Mus musculus", "assay": "In vivo inhibition of PCSK9 in high-fat diet fed ApoE knockout C57BL/6 mouse assessed as decrease in PCSK9 expression in liver at 30 mg/kg, IG for 8 weeks by Western blot analysis", "assay_type": "functional, organism-based"}, "[10]": {"target": "Proprotein convertase subtilisin/kexin type 9 (Homo sapiens) (UniProt Q8NBP7)", "assay": "Inhibition of PCSK9 in human HepG2 cells assessed as decrease in PCSK9 protein expression level at 2.5 to 25 uM incubated for 24 hrs by Western blot analysis", "assay_type": "cell-based", "conditions": "dose 2.5-25 µM"}, "[11]": {"target": "Proprotein convertase subtilisin/kexin type 9 (Homo sapiens) (UniProt Q8NBP7)", "assay": "Inhibition of PCSK9 in human HepG2 cells assessed as increase in LDLR protein expression level at 2.5 to 25 uM incubated for 24 hrs by Western blot analysis", "assay_type": "cell-based", "conditions": "dose 2.5-25 µM"}, "[12]": {"target": "Proprotein convertase subtilisin/kexin type 9 (Homo sapiens) (UniProt Q8NBP7)", "assay": "Inhibition of PCSK9 in human HepG2 cells assessed as increase in LDL-cholesterol cellular uptake by measuring DiI fluorescence at 2.5 to 25 uM incubated for 24 hrs by Dil-LDL staining based flow cytometry analysis", "assay_type": "cell-based", "conditions": "dose 2.5-25 µM"}, "[13]": {"target": "Proprotein convertase subtilisin/kexin type 9 (Homo sapiens) (UniProt Q8NBP7)", "assay": "Inhibition of PCSK9 in human HepG2 cells assessed as fold increase in LDL-cholesterol cellular uptake by measuring DiI fluorescence at 25 uM incubated for 24 hrs by Dil-LDL staining based flow cytometry analysis relative to control", "assay_type": "cell-based"}, "Mus musculus [14]": {"system": "Mus musculus", "assay": "Antiatherosclerotic activity in high-fat diet fed ApoE knockout C57BL/6 mouse assessed as decrease in high-fat diet induced increase in body weight at 30 mg/kg, IG for 8 weeks", "assay_type": "functional, organism-based"}, "Mus musculus [15]": {"system": "Mus musculus", "assay": "Antiatherosclerotic activity in high-fat diet fed ApoE knockout C57BL/6 mouse assessed as decrease in serum total cholesterol level at 30 mg/kg, IG for 8 weeks by lipid profiling assay", "assay_type": "functional, organism-based"}, "Mus musculus [16]": {"system": "Mus musculus", "assay": "Antiatherosclerotic activity in high-fat diet fed ApoE knockout C57BL/6 mouse assessed as decrease in serum triglyceride level at 30 mg/kg, IG for 8 weeks by lipid profiling assay", "assay_type": "functional, organism-based"}, "Mus musculus [17]": {"system": "Mus musculus", "assay": "Antiatherosclerotic activity in high-fat diet fed ApoE knockout C57BL/6 mouse assessed as decrease in LDL cholesterol level at 30 mg/kg, IG for 8 weeks by FPLC analysis", "assay_type": "functional, organism-based"}, "Mus musculus [18]": {"system": "Mus musculus", "assay": "Antiatherosclerotic activity in high-fat diet fed ApoE knockout C57BL/6 mouse assessed as decrease in VLDL fraction cholesterol level at 30 mg/kg, IG for 8 weeks by FPLC analysis", "assay_type": "functional, organism-based"}, "Mus musculus [19]": {"system": "Mus musculus", "assay": "Antiatherosclerotic activity in high-fat diet fed ApoE knockout C57BL/6 mouse assessed as reduction in atherosclerotic plaque size in aortic root at 30 mg/kg, IG for 8 weeks by Oil Red O staining based imaging analysis", "assay_type": "functional, organism-based"}, "Mus musculus [20]": {"system": "Mus musculus", "assay": "Antiatherosclerotic activity in high-fat diet fed ApoE knockout C57BL/6 mouse assessed as reduction in atherosclerotic plaque size in aortae en face root at 30 mg/kg, IG for 8 weeks by Oil Red O staining based imaging analysis", "assay_type": "functional, organism-based"}, "[21]": {"target": "Proprotein convertase subtilisin/kexin type 9 (Homo sapiens) (UniProt Q8NBP7)", "assay": "Inhibition of PCSK9 transcriptional activity in human HepG2 cells transfected with luciferase reporter plasmid containing truncated D1 (-1711 to -1 base pairs) human PCSK9 promoter region assessed as decrease in luciferase activity incubated for 24 hrs by Luciferase assay", "assay_type": "cell-based"}, "[22]": {"target": "Proprotein convertase subtilisin/kexin type 9 (Homo sapiens) (UniProt Q8NBP7)", "assay": "Inhibition of PCSK9 transcriptional activity in human HepG2 cells transfected with luciferase reporter plasmid containing truncated D2 (-1214 to -1 base pairs) human PCSK9 promoter region assessed as decrease in luciferase activity incubated for 24 hrs by Luciferase assay", "assay_type": "cell-based"}, "[23]": {"target": "Proprotein convertase subtilisin/kexin type 9 (Homo sapiens) (UniProt Q8NBP7)", "assay": "Inhibition of PCSK9 transcriptional activity in human HepG2 cells transfected with luciferase reporter plasmid containing truncated D3 (-709 to -1 base pairs) human PCSK9 promoter region assessed as decrease in luciferase activity incubated for 24 hrs by Luciferase assay", "assay_type": "cell-based"}, "[24]": {"target": "Proprotein convertase subtilisin/kexin type 9 (Homo sapiens) (UniProt Q8NBP7)", "assay": "Inhibition of PCSK9 transcriptional activity in human HepG2 cells transfected with luciferase reporter plasmid containing truncated D4 (-440 to -1 base pairs) human PCSK9 promoter region assessed as decrease in luciferase activity incubated for 24 hrs by Luciferase assay", "assay_type": "cell-based"}, "[25]": {"target": "Proprotein convertase subtilisin/kexin type 9 (Homo sapiens) (UniProt Q8NBP7)", "assay": "Inhibition of PCSK9 transcriptional activity in human HepG2 cells transfected with luciferase reporter plasmid containing truncated D5 (-392 to -1 base pairs) human PCSK9 promoter region assessed as decrease in luciferase activity incubated for 24 hrs by Luciferase assay", "assay_type": "cell-based"}, "[26]": {"target": "Proprotein convertase subtilisin/kexin type 9 (Homo sapiens) (UniProt Q8NBP7)", "assay": "Inhibition of PCSK9 transcriptional activity in human HepG2 cells transfected with luciferase reporter plasmid containing truncated D6 (-351 to -1 base pairs) human PCSK9 promoter region assessed as decrease in luciferase activity incubated for 24 hrs by Luciferase assay", "assay_type": "cell-based"}, "[27]": {"target": "Proprotein convertase subtilisin/kexin type 9 (Homo sapiens) (UniProt Q8NBP7)", "assay": "Inhibition of PCSK9 transcriptional activity in human HepG2 cells transfected with luciferase reporter plasmid containing truncated D7 (-335 to -1 base pairs) human PCSK9 promoter region assessed as decrease in luciferase activity incubated for 24 hrs by Luciferase assay", "assay_type": "cell-based"}}, "note": "Active and inactive are the calls of the source. No cut-off for these calls is given here.", "data": [{"smiles": "COCCNc1nc2c(c(=O)n(C)c(=O)n2C)n1Cc1cccc(OC)c1", "values": [{"measurement": "inhibition", "setting": "[1]", "result": 85.7, "unit": "%"}, {"measurement": "CC50 at 24 h", "setting": "[2]", "result": "> 200", "unit": "µM"}, {"measurement": "selectivity ratio", "setting": "[3]", "result": "> 31.3"}, {"measurement": "Activity", "setting": "[4]", "result": "Non-Toxic"}, {"measurement": "Activity", "setting": "[5]", "result": "Non-Toxic"}, {"measurement": "Activity", "setting": "[6]", "result": "Non-Toxic"}, {"measurement": "LD50 at 168 h", "setting": "[7]", "result": "> 1000", "unit": "mg/kg"}, {"measurement": "inhibition", "setting": "Mus musculus [8]", "result": "Active"}, {"measurement": "inhibition", "setting": "Mus musculus [9]", "result": "Active"}, {"measurement": "inhibition", "setting": "[10]", "result": "Dose-Dependent Effect"}, {"measurement": "inhibition", "setting": "[11]", "result": "Dose-Dependent Effect"}, {"measurement": "inhibition", "setting": "[12]", "result": "Dose-Dependent Effect"}, {"measurement": "fold change (FC)", "setting": "[13]", "result": 1.7}, {"measurement": "Activity", "setting": "Mus musculus [14]", "result": "Active"}, {"measurement": "Activity", "setting": "Mus musculus [15]", "result": "Active"}, {"measurement": "Activity", "setting": "Mus musculus [16]", "result": "Active"}, {"measurement": "Activity", "setting": "Mus musculus [17]", "result": "Active"}, {"measurement": "Activity", "setting": "Mus musculus [18]", "result": "Active"}, {"measurement": "Activity", "setting": "Mus musculus [19]", "result": "Active"}, {"measurement": "Activity", "setting": "Mus musculus [20]", "result": "Active"}, {"measurement": "inhibition", "setting": "[21]", "result": "Active"}, {"measurement": "inhibition", "setting": "[22]", "result": "Active"}, {"measurement": "inhibition", "setting": "[23]", "result": "Active"}, {"measurement": "inhibition", "setting": "[24]", "result": "Active"}, {"measurement": "inhibition", "setting": "[25]", "result": "Active"}, {"measurement": "inhibition", "setting": "[26]", "result": "inactive"}, {"measurement": "inhibition", "setting": "[27]", "result": "inactive"}]}]}
